What was measured:
Assay type in all cases: cell-based, human
[1] = test system: HE cells; assay: Single-cell RNAseq of treated HE cells at day 2 of subculture
Experimental: Sorted HE, EHT and HSC-like cells as well magnetically selected (Miltenyi Biotec) cord blood CD34^+ cells were plated onto Matrigel (16 μg/cm^2, Corning)-coated 96-well flat bottom plates in HE medium (Ditadi, A. & Sturgeon, C. M. Directed differentiation of definitive hemogenic endothelium and hematopoietic progenitors from human pluripotent stem cells. Methods 101, 65-72 (2016)) with 1% penicillin-streptomycin and kept in a humidified incubator at 37° C., 5% CO2, 4% O2 overnight. The following day (day 0), wells were washed twice with PBS and fresh HE medium was added, together with UK5099 (10 μM) or DCA (3 mM), where indicated. On day 1 and 2 (as indicated), cells were washed twice with PBS 0.04% UltraPure BSA and collected after a 2-minute incubation at 37° C. with StemPro Accutase Cell Dissociation Reagent. Cells were spun down, resuspended in PBS 0.04% UltraPure BSA, counted (yield between 8,000-18,000 cells) and library preparation was conducted according to the Chromium Single Cell 3′ Reagent kit v3 instructions (10× Genomics). Sequencing was performed on a NOVASeq 6000 from Illumina with the run parameters (28-8-0-91) recommended by 10× Genomics with a final loading concentration of 300 pM of the pooled libraries. Human Umbilical Cord Blood samples were collected from Skine University Hospital (Lund and Malmo) and Helsingborg Hospital with informed consents according to guidelines approved by the regional ethical committee.
The data was processed and analyzed using Seurat v3.1.0, where cells were allowed to have up to 20% mitochondrial reads prior to log-normalization and finding the top 500 variable genes using the “vst” method. Cell cycle scores were calculated and the data was scaled regressing on mitochondrial content and the difference of the S and G2M score. Principal components were calculated prior to calculating a UMAP. Pseudotime trajectories describing two developmental routes were identified in our EHT dataset using Slingshot (Street, K. et al. Slingshot: cell lineage and pseudotime inference for single-cell transcriptomics. BMC Genomics 19,477 (2018)) along which the cells were ordered. The cells were then binned along each trajectory where the cell type composition of each bin was calculated as percentages. Cord blood CD34+ cells were mapped to our data and labeled using scCoGAPS (Stein-O'Brien, G. L. et al. Decomposing Cell Identity for Transfer Learning across 23 Cellular Measurements, Platforms, Tissues, and Species. Cell Syst 8, 395-411.e8 (2019)). CS13 data from Zeng et al. (Zeng, Y. et al. Tracing the first hematopoietic stem cell generation in human embryo by single-cell RNA sequencing. Cell Res 1-14 (2019)) was read and processed to make a UMAP from which the cells they name as “AEC” and “Hem” were identified. These 99 cells were mapped to our data and labeled using SCMAP59. Carnegie Stage 13 data from Zeng et al. was mapped to our EHT dataset using scCoGAPS where 10 patterns were identified, named according to their respective weights (as shown in Table 1) and then projected using projectR. […] The CS 13 dorsal aorta dataset from Zeng et al. was mapped onto our EHT dataset using scCoGAPS. The patterns resulting from this analysis were classified as the cell types described by Zeng et al.
Each cell was assigned to the group that achieved the highest weight. […]

[2] = test system: HE cells; assay: Single HE cell clone assay on OP9-DL1 stroma; settings: day 14; total of 552 single cells per condition
Experimental: Sorted HE (40,000), EHT (30,000) and HSC-like (5-20,000) cells were plated onto Matrigel (16 μg/cm2, Corning)-coated 96-well flat bottom plates in HE medium with 1% penicillin-streptomycin and kept in a humidified incubator at 37° C., 5% C02, 4% 02 overnight. The following day (day 0), wells were washed twice with PBS and fresh HE medium was added, together with 2-DG (1 mM), UK5099 (10 μM), DCA (3 mM or 10 mM), TSA (60 nM), TCP (300 nM), ACSS2i (5 μM), C646 (10 μM), CP-640186 (5 μM) or Atorvastatin (0.5 μM), where indicated. Media was changed and drugs were added every 2 days and cells were kept in a humidified incubator at 37° C., 5% CO2, 20% O2 for 6-7 days. Pictures were taken using an Olympus IX70 microscope equipped with a CellSens DP72 camera and CellSens Standard 1.6 software (Olympus). For single cell subcultures, single HE cells were directly sorted with a BD FACSAriaIII onto OP9-DL1 stroma in flat-bottom 96-well plates with 120 μl OP9 medium (OptiMEM medium with Glutamax (Invitrogen) with 10% FCS, 1% penicillin-streptomycin solution (Thermo Fisher Scientific) and 1% 2-mercaptoethanol (Invitrogen)) with SCF, IL-6, IL-11, IGF1 and EPO, and with or without 10 μM UK, or 3 mM or 10 mM DCA. […] At day 14, the wells were collected and scored for GPA+ clones by flow cytometry, using a BD LSRII.

[3] = test system: HBE1, HBG1-2, HBA1-2 transcripts; assay: Globin transcript q-PCR in CFU colonies; settings: normalized to KLF1, UK5099 10 μM
Experimental: Subcultured HE cells were treated with StemPro Accutase Cell Dissociation Reagent for 2 minutes at 37° C. and dissociated cells were resuspended in 3 ml Methocult H4230 (STEMCELL Technologies, France) (prepared according to manufacturer's instructions, with 20 mL Iscove's Modified Dulbecco's Medium containing 2.5 μg hSCF, 5 μg GM-CSF, 2.5 μg IL-3 and 500 U EPO). Each mixture was divided onto 2 wells of a non-tissue culture treated 6-well plate. Following a 12-day incubation in a humidified incubator at 37° C., 5% CO2, 20% O2, colonies were morphologically distinguished and scored. For globin analysis, colonies in Methocult wells were harvested with PBS, washed thoroughly and frozen in RLT buffer with β-mercaptoethanol. Following RNA extraction and RT (Qiagen), gene expression was assessed with taqman probes by q-PCR. The taqman probes used for this assay are HBA1/2 (Hs00361191_g1), HBE1 (Hs00362216_m1), HBG2/1 (Hs00361131_g1) and KLF1 (Hs00610592_m1).

Row | Structure (SMILES) | less treated HE cells in cluster 7 compared to the control ([1]; day 2, DCA 3 mM) | GPA+ clones [2] | HBE1 (embryonic) globin transcripts [3] | HBG1-2 (fetal) globin transcripts [3] | HBA1-2 (adult globin) expression ([3]; DCA 3 mM) | LSD1, GFI1 and GFI1B expression ([1]; as compared to DCA-treated cells) | average expression levels of erythroid lineage genes (RYK, KLF3, TAL1, GATA2, ZFPM1, KLF1, NFE2, ANK1, HBQ1) ([1]; clusters 6 and 7) | percentage of cells in cluster 6 ([1]; day 2) | more treated HE cells in cluster 7 compared to the control ([1]; day 2, UK5099 10 μM)
1 | O=C(O)C(Cl)Cl [DCA, dichloroacetate] | 35% | 7 clones | – | – | – | – | – | – | –
2 | N#CC(=Cc1cn(-c2ccccc2)c2ccccc12)C(=O)O [UK5099, 2-Cyano-3-(1-phenyl-1H-indol-3-yl)-2-propenoic acid] | – | 12 clones | significant increase | significant increase | did not have an effect | higher levels | higher | constant between conditions | 38%

Source: patent US20250129334A1, “LINEAGE SPECIFICATION DURING STEM CELL TRANSITION” (Amniotics AB, priority 2021, published 2025)
